What was measured:
[1] = target: JAK2 JH2 (Homo sapiens, UniProt O60674, F794H/W659A/W777A); test: Competitive fluorescence polarization
[2] = cited from earlier work

Sequence of JAK2 JH2 (O60674 536-812 W659A/W777A/F794H): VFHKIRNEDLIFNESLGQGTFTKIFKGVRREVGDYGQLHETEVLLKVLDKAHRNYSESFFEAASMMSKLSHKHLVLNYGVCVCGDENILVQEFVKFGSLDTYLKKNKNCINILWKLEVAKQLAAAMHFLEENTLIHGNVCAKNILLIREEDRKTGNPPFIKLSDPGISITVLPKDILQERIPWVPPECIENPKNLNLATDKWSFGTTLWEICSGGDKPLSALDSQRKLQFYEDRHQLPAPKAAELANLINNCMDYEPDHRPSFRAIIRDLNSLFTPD

Compound | octanol/water log P [2] | also measured
Nc1nc(Nc2ccc(S(N)(=O)=O)cc2)nn1C(=O)Nc1ccccc1 [Compound 4, 5-amino-N-phenyl-3-((4-sulfamoylphenyl)amino)-1H-1,2,4-triazole-1-carboxamide] |  | improvement in JAK2 JH2 binding over 2 ([1]; FP Kd relative to compound 2): 3 fold
N#Cc1ccc(Nc2nc(N)n(C(=O)Nc3ccc(OCC(=O)O)cc3)n2)cc1 [Compound 9, 2-(4-(5-amino-3-((4-cyanophenyl)amino)-1H-1,2,4-triazole-1-carboxamido)phenoxy)acetic acid] |  | boost in binding strength with JAK2 JH2 compared to 4 ([1]; FP Kd relative to compound 4): ca. 8 fold
c1cocn1 [oxazole] | 0.12 | 
c1cscn1 [thiazole] | 0.44 | 
c1ccsc1 [thiophene] | 1.81 | 
furan | 1.34 | 
